Among the data in PubChem BioAssay (NCI) are TGI values, retold here.

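Exposure lasted 48 hours, with cells grown in 96-well plates and compounds tested at five concentrations. TGI: concentration producing complete growth inhibition.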

Assay in all cases: NCI-60 cell line screen, 48 h
Assay [1] concerns OVCAR-8 ovarian.
Assay [2] relates to IGROV1 ovarian.
Assay [3] deals with SNB-75 CNS.
Assay [4] concerns K-562 leukemia.
The subject of assay [5] is TK-10 renal.
In assay [6] the test system is HL-60(TB) leukemia.
The test system of assay [7] is HOP-92 NSCLC.
Assay [8] relates to HS 578T breast.
Assay [9] concerns HCT-15 colon.
Assay [10] relates to LOX IMVI melanoma.
For assay [11], the system named is MOLT-4 leukemia.
In assay [12] the test system is 786-0 renal.
Assay [13] relates to OVCAR-5 ovarian.
For assay [14], the system named is KM12 colon.
Assay [15] deals with SNB-19 CNS.
For assay [16], the system named is MDA-MB-435.
For assay [17], the system named is A498 renal.

As to `COc1cc(C2c3cc4c(cc3OC(NCCc3ccccc3)C2C)OCO4)cc(OC)c1OC` (stereo not given), the TGI in assay [1] is > 100 µM; in assay [2], 27 µM; in assay [3], 0.488 µM; in [4] it was 16.9 µM; in [5], > 100 µM; in [6], 0.547 µM. Besides, the TGI is 63.3 µM in assay [7]; 0.425 µM in [8]; > 40.9 µM in assay [9]; 15.6 µM in assay [10]; > 37.7 µM in assay [11]; 18.1 µM in [12]. The TGI was > 100 µM in assay [13], 4.12 µM in [14], > 100 µM in [15] and 2.18 µM in assay [16].
Consider `CCOC(=O)c1sc2c(c1O)c(=O)n(-c1ccccc1)c(=S)n2-c1ccccc1`, for which the TGI in [1], in [2], in assay [3], in assay [4], in assay [5] and in assay [6] was > 100 µM each time. The TGI in assay [7], in [8], in assay [9], in assay [10], in assay [12] and in assay [13] was > 100 µM in each case. In addition, the TGI in assay [14], in assay [15] and in [16] was > 100 µM throughout.
On to `CCCCCCNC(=S)N/N=C(\C)c1ccccn1`, for which the TGI is 10.2 µM in assay [1]; 18.4 µM in assay [2]; 23.9 µM in [3]; 42 µM in [5]; 2.25 µM in assay [7]; > 100 µM in [8]. In addition, the TGI was 21.9 µM in assay [9]; 12.3 µM in [10]; 14.4 µM in assay [17]; 12.1 µM in [12]; 25.9 µM in assay [13]; 8.97 µM in [14]. Moreover, the TGI in assay [15] was 21 µM; in assay [16], 17.8 µM.
On to `CCN(CC)c1ccc(C2Nc3ccc4ccccc4c3C3=C2C(=O)CCC3)cc1` (stereo not given), for which the TGI in assay [1] was 38.3 µM; in [3], 50.5 µM; in assay [4], > 100 µM; in assay [8] it was 34.4 µM; in assay [9], > 100 µM; in assay [11], > 100 µM. The TGI is > 100 µM in assay [17]; 76.8 µM in assay [12]; > 100 µM in assay [13]; > 100 µM in [14]; > 100 µM in [15]; > 100 µM in [16].
`NC(=O)c1nnsc1NN=O`: the TGI in assay [1], in assay [2], in [3], in [4], in [6] and in [8] was > 100 µM in each case. Moreover, the TGI in [9], in assay [10], in [11], in [17], in [12] and in assay [13] was > 100 µM throughout. Also, the TGI in [14], in assay [15] and in assay [16] was > 100 µM each time.
In the case of `CSc1nn(C)cc2nc(C)nc1-2`, the TGI in [1], in [2], in assay [3], in assay [4], in assay [5] and in assay [6] was > 100 µM throughout. In addition, the TGI in assay [8], in assay [9], in assay [11], in assay [17], in [12] and in assay [13] was > 100 µM each time. Also, the TGI in assay [14], in assay [15] and in assay [16] was > 100 µM in each case.
With `CC(C)CC(NP(=O)(O)OC1OC(C)C(O)C(O)C1O)C(=O)NC(Cc1c[nH]c2ccccc12)C(=O)O` (stereo not given), the TGI in [1], in [2], in assay [3], in assay [4], in assay [7] and in [8] was > 100 µM in each case. Besides, the TGI in [9], in assay [11], in assay [17], in assay [12], in assay [13] and in [14] was > 100 µM each time. The TGI in assay [15] and in assay [16] was > 100 µM each time.
Regarding `CCCCOCOc1ccccc1P1(=O)COc2ccccc2OC1`, the TGI in [2] was > 100 µM; in assay [3] it was > 100 µM; in [4], > 100 µM; in assay [5] it was 94.1 µM; in assay [6] it was > 100 µM; in assay [7] it was > 100 µM. Also, the TGI in assay [8], in assay [9], in assay [10], in assay [12], in [13] and in assay [14] was > 100 µM each time. The TGI in [15] and in [16] was > 100 µM each time.
Consider `CCOC(=O)N(C)C(=C(F)F)C(F)(F)F`, for which the TGI was determined as 79.4 µM in assay [1]; 62.4 µM in [2]; 93.1 µM in assay [3]; 62.1 µM in assay [4]; 97.8 µM in assay [5]; 49.7 µM in [6]. Besides, the TGI in [7] is 65.2 µM; in assay [8], > 100 µM; in assay [9], 34.3 µM; in [10], 85.5 µM; in assay [11], 51.6 µM; in assay [12], 72 µM. Moreover, the TGI in assay [13] is > 100 µM; in [14], > 100 µM; in [16], 46.2 µM.
